Measurements taken from US12239647B2, “ALS treatment using induced regulatory T (iTREG) cells” (RAPA THERAPEUTICS, LLC, priority 2018, dated 2025).

Experiments:
[1] = system: human CD4+ and CD8+ T cells; assay: RNA expression of T cell effector molecules after 3-day de-differentiation culture (Luminex Quantigene); type: cell-based; details: 3-day culture, bead:T cell 1:3, temsirolimus 1 μM, Vitamin D 0.1 or 1.0 nM; relative to control Th1/Tc1 culture
Method: (§1) At the end of the de-differentiation interval, cells were harvested, RNA was isolated, and RNA expression analysis was performed by Luminex Quantigene method. All results shown represent relative RNA expression, with results normalized to a value of 1.0 for the Th1/Tc1 control culture.

[2] = system: human CD4+ and CD8+ T cells; assay: RNA expression of de-differentiation transcription factors and IL-7 receptor alpha after 3-day culture (Luminex Quantigene); type: cell-based; details: bead:T cell 1:3, temsirolimus 1 μM, relative to control culture
Method: as §1

[3] = system: human CD4+ and CD8+ T cells; assay: RNA expression of Th1 transcription factors and HIF-1-α after 3-day culture (Luminex Quantigene); type: cell-based; details: bead:T cell 1:3, temsirolimus 1 μM, Vitamin D 0.1 to 1.0 nM, relative to control culture
Method: as §1

[4] = system: human CD4+ and CD8+ T cells; assay: Western blot for mTORC1-related molecule Raptor after 3-day de-differentiation culture; type: cell-based
Excerpt: After the 3-day culture interval, the T cells were harvested, and protein was isolated and subjected to western blot analysis for the mTORC1 complex protein, Raptor, and the housekeeping gene, Actin.

[5] = system: human CD4+ and CD8+ T cells; assay: Western blot for Raptor, Rictor, p70S6K and SGK1 after 3-day de-differentiation culture; type: cell-based; details: combination agent de-differentiation: temsirolimus 1 μM, Vitamin D 0.03 to 1.0 nM, Daclizumab 50 μg/ml; relative to control culture
Excerpt: After the 3-day culture interval, the T cells were harvested, and protein was isolated and subjected to western blot analysis for the mTORC1 complex protein, Raptor; the mTORC2 complex protein, Rictor; the post-mTORC1 protein p70S6K; the post-mTORC2 protein, SGK1; and the housekeeping gene, GAPDH.

[6] = system: human CD4+ and CD8+ T cells; assay: T cell yield at day 13 after de-differentiation and re-stimulation without inhibitors; type: cell-based
Method: After 10 days (13 days of total culture), the T cells were harvested, enumerated, and evaluated by flow cytometry. FIG. 8 illustrates the effect of culture components during the de-differentiation interval on subsequent T cell yield (at day 13 of culture). […] After the 3-day interval, media was exchanged to fresh X-Vivo 20 without inhibitors, high-level co-stimulation was provided (3:1 bead-to-T cell ratio), and the T cell growth cytokines IL-2 (100 IU/ml) and IL-7 (10 ng/ml) were added. At day 13 of culture, viable T cells were enumerated and the overall yield is shown relative to day 0 input number.

CD4+ T cells = assay: Flow cytometry of CD4+ T cell memory markers after de-differentiation interval; type: cell-based, human
Method: FIGS. 9A-9C illustrate the effect of culture components during the de-differentiation interval on CD4^+ T cell expression of memory markers (at day 13 of culture). […] After the 3-day interval, media was exchanged to fresh X-Vivo 20 without inhibitors, high-level co-stimulation was provided (3:1 bead-to-T cell ratio), and the T cell growth cytokines IL-2 (100 IU/ml) and IL-7 (10 ng/ml) were added. […] All results are shown relative to the value of CD4^+ T cells at culture initiation (last column in FIGS. 9A-9C; “Day 0 Input Value”).

CD8+ T cells = assay: Flow cytometry of CD8+ T cell memory markers after de-differentiation interval; type: cell-based, human; details: reducing or eliminating only temsirolimus from the initial culture interval (columns #5 and 6)
Method: After the 3-day interval, media was exchanged to fresh X-Vivo 20 without inhibitors, high-level co-stimulation was provided (3:1 bead-to-T cell ratio), and the T cell growth cytokines IL-2 (100 IU/ml) and IL-7 (10 ng/ml) were added. T cells were subjected to flow cytometry for evaluation of co-expression of CD8^+, CD62L^+, and CCR7^+ markers (left panel; evaluated at day 10 of culture); and co-expression of CD8^+, CD62L^+, CCR7^+, and CD127^+ markers (right panel; evaluated at day 10 of culture). All results are shown relative to the value of CD8^+ T cells at culture initiation (last column in FIGS. 10A-10B; “Day 0 Input Value”).

[7] = system: human CD4+ and CD8+ T cells; assay: Cytokine secretion (Luminex) in extended hybrid Th2/TREG culture with temsirolimus or pemetrexed; type: cell-based; details: hybrid TREG-Th2 condition; temsirolimus 1.0 μM or pemetrexed 10 nM
Excerpt: (§2) FIGS. 21A-21D illustrates that extended culture of de-differentiated T cells in the hybrid Th2/TREG polarization condition results in the generation of T cells expressing with a predominant Th2 cytokine phenotype: IL-4, IL-5, and IL-13 secretion. […] At days 12, 20, and 32 of culture, the T cells were harvested, washed, and re-stimulated with 3/28 beads (3:1 ratio) for 24 hr; the resultant supernatant was harvested and tested for cytokine content by Luminex multi-analyte method. All results shown are expressed as cytokine level in pg per ml per 1×10^6 cells/ml/24 hr. The Th2 cytokine IL-10 was also evaluated: all values were less than 20 pg/ml per 1×10^6 cells/ml/24 hr.
as §2, with “22A-22D illustrate” for “21A-21D illustrates”, “IL-2, IFN-γ,” for “IL-4, IL-5,”, “GM-CSF” for “IL-13”, “inflammatory cytokines IL-17 and TNF-α were” for “Th2 cytokine IL-10 was”

[8] = system: human CD4+ and CD8+ T cells; assay: Cytokine secretion (Luminex) after 10-day re-differentiation in polarization conditions; type: cell-based; details: lack of IL-4 inclusion in the T cell re-differentiation process
Excerpt: FIGS. 16A-16C illustrate that the culture of de-differentiated T cells in hybrid Th2/TReg polarization condition results in the generation of T cells with a primitive Th2 cell cytokine phenotype: as indicated by high levels of IL-2 and IL-4 secretion and a low level of IL-5 secretion. Human CD4+ and CD8^+ T cells were subjected to a 3-day de-differentiation procedure and subsequent culture in media containing variable polarization culture conditions and variable presence of pemetrexed, as described in FIG. 13. Out of the total of n=24 culture conditions, only the cultures with favorable cell yields were further evaluated; all cultures shown that contained pemetrexed (“+”) were at the concentration of 10 nM. The TREG conditions above all contained IL-2, TGF-β, and IL-4 (“TReg”) unless indicated (“TReg, No IL4”). […] All results shown are expressed as cytokine level in pg per ml per 1×10^6 cells/ml/24 hr.
FIGS. 17A-17C illustrate that the culture of de-differentiated T cells in hybrid Th2/TReg polarization condition results in the generation of T cells with a primitive Th2 cell cytokine phenotype: as indicated by low levels of IL-10, IL-13, and IL-17 secretion. […] Out of the total of n=24 culture conditions, only the cultures with favorable cell yields were further evaluated; all cultures shown that contained pemetrexed (“+”) were at the concentration of 10 nM. […] All results shown are expressed as cytokine level in pg per ml per 1×10^6 cells/ml/24 hr.
FIGS. 18A-18C illustrates that the culture of de-differentiated T cells in hybrid Th2/TREG polarization condition results in the generation of T cells with a primitive Th2 cell cytokine phenotype: as indicated by low levels of IFN-gamma, TNF-alpha, and GM-CSF secretion. […] Out of the total of n=24 culture conditions, only the cultures with favorable cell yields were further evaluated; all cultures shown that contained pemetrexed (“+”) were at the concentration of 10 nM. […] All results shown are expressed as cytokine level in pg per ml per 1×10^6 cells/ml/24 hr.

CD4+ and CD8+ T cells = assay: Flow cytometry of GATA3 and FOXP3 in Th2/TREG cell product after 6-day culture; type: cell-based, human; details: control manufacturing culture that did not include IL-4
Excerpt: After the 6-day culture, the T cells were harvested, stained for surface markers (CD4 and CD8) and intracellular molecule expression (GATA3 and FOXP3) and evaluated by flow cytometry. Results in FIGS. 26A-B show the FOXP3 and GATA3 expression for CD4+ and CD8+ T cells at the start of culture and after culture (Th2/TREG) as measured by flow cytometry. The percentages provided indicate the amount of cells considered positive for CD4+ or CD8+ and the intracellular marker (shown in boxes).

[9] = system: human CD4+ and CD8+ T cells; assay: Western blot for pro-apoptosis molecule BIM after 3-day de-differentiation culture; type: cell-based; details: 3-day culture, bead:T cell 1:3; Vitamin D 0.1 nM, Daclizumab 50 μg/ml
Excerpt: After the 3-day culture interval, the T cells were harvested, and protein was isolated and subjected to western blot analysis for the pro-apoptosis-related gene, BIM, and the housekeeping gene, Actin.
To assess this, we measured BIM levels in the T cells cultured with a low-strength of co-stimulation (1:3 bead-to-T cell ratio) and presence of the various inhibitors.

[10] = Vitamin D 1.0 nM in combination

Molecule: CO[C@H]1C[C@@H]2CC[C@@H](C)[C@@](O)(O2)C(=O)C(=O)N2CCCC[C@H]2C(=O)O[C@H]([C@H](C)C[C@@H]2CC[C@@H](OC(=O)C(C)(CO)CO)[C@H](OC)C2)CC(=O)[C@H](C)/C=C(\C)[C@@H](O)[C@@H](OC)C(=O)[C@H](C)C[C@H](C)/C=C/C=C/C=C/1C [temsirolimus]
- Granzyme B RNA expression [1]: reduction
- IFN-gamma RNA expression [1]: reduction
- IL-10 RNA expression [1]: reduction
- IL-7 receptor alpha RNA expression [2, 10]: capable of up-regulating
- KLF4 RNA expression [2, 10]: neither temsirolimus nor Vitamin D alone increased
- KLF10 RNA expression [2, 10]: acts alone to beneficially up-regulate
- Nanog RNA expression ([2]; Vitamin D 0.1 or 1.0 nM): up-regulation
- HIF-1-α RNA expression [3]: did not down-regulate
- STAT1 RNA expression [3]: acts alone to beneficially down-regulate
- T-BET RNA expression [3]: acts alone to beneficially down-regulate
- optimal dose for down-regulation of Raptor ([4]; combination of Vitamin D plus temsirolimus): 1.0 µM
- Raptor expression ([4]; temsirolimus 0.3 μM (culture 9), versus 1.0 μM): higher levels of Raptor expression
- Rictor expression (western blot, FIG. 6) [5]: effective
- preferable concentration for T cell yield ([6]; de-differentiation interval): 1.0 µM
- T cell yield at day 13 of culture ([6]; temsirolimus concentration reduced to 0.1 μM (column #7)): reduced the resultant T cell yield
- CD4+ CD45RA+ naïve T cell population (CD4+ T cells; elimination of temsirolimus during the initial culture interval (culture #6)): depletion of the naïve T cell population
- frequency of CD4+ triple-positive (CD62L, CCR7, CD127) T cells (CD4+ T cells; reducing or eliminating only temsirolimus from the initial culture interval (columns #5 and 6)): greatly reduced the frequency of triple-positive T cells
- frequency of CD8+ triple-positive (CD62L, CCR7, CD127) T cells (CD8+ T cells): greatly reduced the frequency of triple-positive T cells
- IL-5 secretion [7]: blunted
- IL-13 secretion [7]: blunted

B1: IL-4: Th2 polarizing cytokine added to re-differentiation culture (protein, UniProt P05112 25-153, looked up)
Interleukin-4: HKCDITLQEIIKTLNSLTEQKTLCTELTVTDIFAASKNTTEKETFCRAATVLRQFYSHHEKDTRCLGATAQQFHRHKQLIRFLKRLDRNLWGLAGLNSCPVKEANQSTLENFLERLKTIMREKYSKCSS
- GM-CSF secretion [8]: higher levels
- IFN-γ secretion [8]: higher levels
- TNF-α secretion [8]: higher levels
- frequency of GATA3-positive T cells (CD4+ and CD8+ T cells): greatly reduced frequency of GATA3-positive T cells

B2: Daclizumab: anti-IL-2 receptor monoclonal antibody (antibody, chains of the INN, looked up, V domains shown)
VH: QVQLVQSGAEVKKPGSSVKVSCKASGYTFTSYRMHWVRQAPGQGLEWIGYINPSTGYTEYNQKFKDKATITADESTNTAYMELSSLRSEDTAVYYCARGGGVFDYWGQGTLVTVSS
VL: DIQMTQSPSTLSASVGDRVTITCSASSSISYMHWYQQKPGKAPKLLIYTTSNLASGVPARFSGSGSGTEFTLTISSLQPDDFATYYCHQRSTYPLTFGQGTKVEVK
- Raptor expression (western blot, normalized by actin) ([4]; 3-day culture, bead:T cell 1:3, temsirolimus 1.0 μM, Vitamin D 0.1 nM, Daclizumab 50 μg/ml): beneficial role in suppressing
- Rictor expression (western blot, FIG. 6) [5]: did not abrogate
- BIM expression (western blot, normalized by actin) [9]: beneficial role in suppressing
